Species: Rattus norvegicus
Assay: DrugMatrix - Regimen: Daily Repeat
Format: toxicity, organism-based, Sprague-Dawley
Set-up: regimen Daily Repeat, gender Male, age 6-8 weeks
Settings: in vivo, po, route oral GAVAGE, […]; for ABSOLUTE BASOPHIL / ABSOLUTE EOSINOPHIL / ABSOLUTE LYMPHOCYTE / ABSOLUTE MONOCYTE / ABSOLUTE SEGMENTED NEUTROPHIL / BASOPHIL / EOSINOPHIL / ERYTHROCYTE COUNT / HEMATOCRIT / HEMOGLOBIN / LEUKOCYTE COUNT / LYMPHOCYTE / MEAN CORPUSCULAR HEMOGLOBIN / MEAN CORPUSCULAR HEMOGLOBIN CONCENTRATION / MEAN CORPUSCULAR VOLUME / MONOCYTE / NEUTROPHIL / NUCLEATED RED BLOOD CELLS / PLATELET COUNT: tissue Blood; for ALANINE AMINOTRANSFERASE / ALBUMIN / ALKALINE PHOSPHATASE / ASPARTATE AMINOTRANSFERASE / BLOOD UREA NITROGEN / CARBON DIOXIDE / CHLORIDE / CHOLESTEROL / CREATINE PHOSPHOKINASE / CREATININE / GLUCOSE / LACTATE DEHYDROGENASE / LIPASE / PHOSPHORUS / POTASSIUM / SODIUM / TOTAL BILIRUBIN / TOTAL PROTEIN / URIC ACID: tissue Plasma
[1] = 0 mg/kg, 72 h, dose level Control, time 3 day
[2] = 0 mg/kg, 120 h, dose level Control, time 5 day
[3] = 3 mg/kg, 72 h, dose level Low, time 3 day

Cc1cccc(Nc2ccncc2S(=O)(=O)NC(=O)NC(C)C)c1 [TORSEMIDE]
ABSOLUTE BASOPHIL [1]: 0 CELLS/uL
ABSOLUTE EOSINOPHIL [1]: 41.83 CELLS/uL
ABSOLUTE LYMPHOCYTE [1]: 8545.5 CELLS/uL
ABSOLUTE MONOCYTE [1]: 240 CELLS/uL
ABSOLUTE SEGMENTED NEUTROPHIL [1]: 906 CELLS/uL
BASOPHIL [1]: 0%
EOSINOPHIL [1]: 0.33%
ERYTHROCYTE COUNT [1]: 5.6 x10E6/uL
HEMATOCRIT [1]: 35.4%
HEMOGLOBIN [1]: 13.42 G/DL
LEUKOCYTE COUNT [1]: 9.73 x10E3/uL
LYMPHOCYTE [1]: 87.83%
MEAN CORPUSCULAR HEMOGLOBIN [1]: 23.98 pg
MEAN CORPUSCULAR HEMOGLOBIN CONCENTRATION [1]: 37.92 G/DL
MEAN CORPUSCULAR VOLUME [1]: 63.3 fL
MONOCYTE [1]: 2.5%
NEUTROPHIL [1]: 9.33%
NUCLEATED RED BLOOD CELLS [1]: 0 /100WBC
PLATELET COUNT [1]: 1032 x10E3/uL
ALANINE AMINOTRANSFERASE [1]: 72.83 u/L
ALBUMIN [1]: 4 G/DL
ALKALINE PHOSPHATASE [1]: 322.83 u/L
ASPARTATE AMINOTRANSFERASE [1]: 102.67 u/L
BLOOD UREA NITROGEN [1]: 12 mg/dL
CARBON DIOXIDE [1]: 34.33 mmol/L
CHLORIDE [1]: 97.67 MEQ/L
CHOLESTEROL [1]: 82.5 mg/dL
CREATINE PHOSPHOKINASE [1]: 410.33 u/L
CREATININE [1]: 0.18 mg/dL
GLUCOSE [1]: 164.5 mg/dL
LACTATE DEHYDROGENASE [1]: 119.5 u/L
LIPASE [1]: 11.83 u/L
PHOSPHORUS [1]: 9.52 mg/dL
POTASSIUM [1]: 5.56 MEQ/L
SODIUM [1]: 142.48 MEQ/L
TOTAL BILIRUBIN [1]: 0.18 mg/dL
TOTAL PROTEIN [1]: 5.77 G/DL
URIC ACID [1]: 0.48 mg/dL
ABSOLUTE BASOPHIL [2]: 0 CELLS/uL
ABSOLUTE EOSINOPHIL [2]: 0 CELLS/uL
ABSOLUTE LYMPHOCYTE [2]: 9065 CELLS/uL
ABSOLUTE MONOCYTE [2]: 341.33 CELLS/uL
ABSOLUTE SEGMENTED NEUTROPHIL [2]: 527 CELLS/uL
BASOPHIL [2]: 0%
EOSINOPHIL [2]: 0%
ERYTHROCYTE COUNT [2]: 5.25 x10E6/uL
HEMATOCRIT [2]: 34.08%
HEMOGLOBIN [2]: 13.5 G/DL
LEUKOCYTE COUNT [2]: 9.93 x10E3/uL
LYMPHOCYTE [2]: 91.17%
MEAN CORPUSCULAR HEMOGLOBIN [2]: 25.7 pg
MEAN CORPUSCULAR HEMOGLOBIN CONCENTRATION [2]: 39.62 G/DL
MEAN CORPUSCULAR VOLUME [2]: 64.93 fL
MONOCYTE [2]: 3.33%
NEUTROPHIL [2]: 5.5%
NUCLEATED RED BLOOD CELLS [2]: 0 /100WBC
PLATELET COUNT [2]: 1077.5 x10E3/uL
ALANINE AMINOTRANSFERASE [2]: 57.83 u/L
ALBUMIN [2]: 4.07 G/DL
ALKALINE PHOSPHATASE [2]: 319.17 u/L
ASPARTATE AMINOTRANSFERASE [2]: 83.33 u/L
BLOOD UREA NITROGEN [2]: 13.67 mg/dL
CARBON DIOXIDE [2]: 30.83 mmol/L
CHLORIDE [2]: 98.33 MEQ/L
CHOLESTEROL [2]: 64.83 mg/dL
CREATINE PHOSPHOKINASE [2]: 263.67 u/L
CREATININE [2]: 0.2 mg/dL
GLUCOSE [2]: 182.83 mg/dL
LACTATE DEHYDROGENASE [2]: 124 u/L
LIPASE [2]: 10.5 u/L
PHOSPHORUS [2]: 10 mg/dL
POTASSIUM [2]: 5.78 MEQ/L
SODIUM [2]: 142.48 MEQ/L
TOTAL BILIRUBIN [2]: 0.2 mg/dL
TOTAL PROTEIN [2]: 6 G/DL
URIC ACID [2]: 0.7 mg/dL
ABSOLUTE BASOPHIL [3]: 0 CELLS/uL
ABSOLUTE EOSINOPHIL [3]: 53.33 CELLS/uL
ABSOLUTE LYMPHOCYTE [3]: 14854 CELLS/uL
ABSOLUTE MONOCYTE [3]: 155 CELLS/uL
ABSOLUTE SEGMENTED NEUTROPHIL [3]: 1071 CELLS/uL
BASOPHIL [3]: 0%
EOSINOPHIL [3]: 0.33%
ERYTHROCYTE COUNT [3]: 5.34 x10E6/uL
HEMATOCRIT [3]: 33.73%
HEMOGLOBIN [3]: 13.07 G/DL
LEUKOCYTE COUNT [3]: 16.13 x10E3/uL
LYMPHOCYTE [3]: 92%
MEAN CORPUSCULAR HEMOGLOBIN [3]: 24.43 pg
MEAN CORPUSCULAR HEMOGLOBIN CONCENTRATION [3]: 38.7 G/DL
MEAN CORPUSCULAR VOLUME [3]: 63.07 fL
MONOCYTE [3]: 1%
NEUTROPHIL [3]: 6.67%
NUCLEATED RED BLOOD CELLS [3]: 0 /100WBC
PLATELET COUNT [3]: 969.67 x10E3/uL
ALANINE AMINOTRANSFERASE [3]: 67.33 u/L
ALBUMIN [3]: 3.93 G/DL
ALKALINE PHOSPHATASE [3]: 375.67 u/L
ASPARTATE AMINOTRANSFERASE [3]: 84.33 u/L
BLOOD UREA NITROGEN [3]: 11.33 mg/dL
CARBON DIOXIDE [3]: 26.67 mmol/L
CHLORIDE [3]: 101.33 MEQ/L
CHOLESTEROL [3]: 69.33 mg/dL
CREATINE PHOSPHOKINASE [3]: 255 u/L
CREATININE [3]: 0.29 mg/dL
GLUCOSE [3]: 162 mg/dL
LACTATE DEHYDROGENASE [3]: 201 u/L
LIPASE [3]: 11.67 u/L
PHOSPHORUS [3]: 10.23 mg/dL
POTASSIUM [3]: 5.87 MEQ/L
SODIUM [3]: 143.83 MEQ/L
TOTAL BILIRUBIN [3]: 0.2 mg/dL
TOTAL PROTEIN [3]: 5.6 G/DL
URIC ACID [3]: 0.93 mg/dL
